Source: US4130709A, “Pleuromutilin glycoside derivatives” (Eli Lilly and Company, priority 1977, dated 1978)
In brackets after ≈: the same amount, converted by molar mass. Read-outs that look alike come from different tables or passages of the source.

Tests used:
Spiroplasma citri = experiment: in vitro inhibition of Spiroplasma citri measured by a color reaction; assay type: cell-based; parameters: key to Activity (color reaction): Red (R) includes complete inhibition; red-orange (RO) indicates partial inhibition; yellow (Y) indicates no inhibition
Pasteurella hemolytica = experiment: in vitro tests against Pasteurella hemolytica; assay type: cell-based
Treponema hyodysenteriae = experiment: in vitro agar plate test against Treponema hyodysenteriae; settings: four days anaerobic
[1] = toxicity (LD50) on intraperitoneal injection in mice; settings: mouse, in vivo, ip
[2] = system: Bacteroides melaninogenicus 1856/28; experiment: standard agar-dilution test, anaerobic bacteria; assay type: cell-based; settings: Prevotella intermedia; Bacteroides melaninogenicus 1856/28; 24-hour incubation; read-out: MIC
Peptococcus prevoti = experiment: standard agar-dilution test, anaerobic bacteria; assay type: cell-based; settings: Peptococcus prevoti; 24-hour incubation; read-out: MIC
[3] = system: Bacteroides fragilis 1877; experiment: standard agar-dilution test, anaerobic bacteria; assay type: cell-based; settings: Bacteroides fragilis 1877; 24-hour incubation; read-out: MIC
[4] = system: Peptostreptococcus intermedius; experiment: standard agar-dilution test, anaerobic bacteria; assay type: cell-based; settings: Peptostreptococcus intermedius; 24-hour incubation; read-out: MIC
[5] = system: Streptococcus pneumoniae B1492; experiment: in vivo antimicrobial activity, experimental infection in mice, Streptococcus pneumoniae B1492; settings: sc, two doses, infecting challenge 340 × LD50 (ip), read-out: ED50 × 2
Protocol: (§1) Typical compounds of the present invention have shown in vivo antimicrobial activity against experimental bacterial infections. When two doses of these compounds were administered to mice in illustrative infections, the activity observed was measured as an ED50 value [effective dose in mg/kg to protect 50% of the test animals; see Warren Wick, et al., J. Bacteriol. 81, 233-235 (1961)].

Bacteroides vulgatis = experiment: standard agar-dilution test, anaerobic bacteria; assay type: cell-based; settings: Bacteroides vulgatis; 24-hour incubation; read-out: MIC
[6] = system: Staphylococcus aureus 3055; experiment: in vivo antimicrobial activity, experimental infection in mice, Staphylococcus aureus 3055; settings: two doses, read-out: ED50 × 2
Protocol: as §1

[7] = system: Bacteroides melaninogenicus 2736; experiment: standard agar-dilution test, anaerobic bacteria; assay type: cell-based; settings: Bacteroides melaninogenicus 2736; 24-hour incubation; read-out: MIC
Clostridium septicum = experiment: standard agar-dilution test, anaerobic bacteria; assay type: cell-based; settings: 24-hour incubation
Protocol: (§2) Table IV summarizes the activity of typical compounds of this invention, as determined by the standard agar-dilution test.
(§3) *Endpoint read after 24-hour incubation

[8] = system: Bacteroides thetaiotaomicron; experiment: standard agar-dilution test, anaerobic bacteria; assay type: cell-based; settings: 24-hour incubation
Protocol: as §2, §3

[9] = system: Staphylococcus aureus (H-Heatley) NRRL B-314; experiment: in vitro turbidometric assay (Autoturb Microbiological Assay System) against Staphylococcus aureus; assay type: cell-based; settings: nutrient broth pH 7, approximately 4 hours at 37° C., A-40104 factor A as standard
In short: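 S. aureus H-Heatley NRRL B-314 grown in nutrient broth (pH 7), about 4 h at 37° C, with turbidity read on the Autoturb system. Compounds were dissolved in water and diluted to roughly 2.5–5.0 mcg activity/ml. Activity units were set against an A-40104 factor A standard curve (1.25–6.25 mcg/ml).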

Clostridium perfringens = experiment: microbe, parasite or virus in culture; assay type: cell-based; settings: 24 h
[10] = system: Fusobacterium necrophorum; experiment: standard agar-dilution test, anaerobic bacteria; assay type: cell-based; settings: 24-hour incubation, read-out: MIC
Bacteroides corrodens = experiment: standard agar-dilution test, anaerobic bacteria; assay type: cell-based; settings: Eikenella corrodens; Bacteroides corrodens; 24-hour incubation; read-out: MIC
[11] = system: Pasteurella multocida (turkey); experiment: in vitro activity against Pasteurella multocida (turkey); assay type: cell-based
From the text: (§4) The activity of representative compounds of this invention (R^2 =H in group tested) against P. multocida and the Pseudomonas sp. is summarized in Table VI.

[12] = system: Pasteurella multocida (bovine); experiment: in vitro activity against Pasteurella multocida (bovine); assay type: cell-based
From the text: as §4

[13] = system: Streptococcus pneumoniae Park I; experiment: in vivo antimicrobial activity, experimental infection in mice, Streptococcus pneumoniae Park I; settings: sc, read-out: ED50 × 2
Protocol: as §1

Actinomyces israelii = experiment: standard agar-dilution test, anaerobic bacteria; assay type: cell-based; settings: 24-hour incubation
Bacteroides fragilis 111 = experiment: standard agar-dilution test, anaerobic bacteria; assay type: cell-based; settings: Bacteroides fragilis 111; 24-hour incubation; read-out: MIC
Eubacterium aerofaciens = experiment: standard agar-dilution test, anaerobic bacteria; assay type: cell-based; settings: Collinsella aerofaciens; Eubacterium aerofaciens; 24-hour incubation; read-out: MIC
[14] = system: Streptococcus pyrogenes C203; experiment: in vivo antimicrobial activity, experimental infection in mice, Streptococcus pyrogenes C203; settings: sc, two doses, read-out: ED50 × 2
Protocol: as §1

Mycoplasma synoviae = experiment: in vitro broth-dilution studies, mycoplasma; assay type: cell-based; settings: Mycoplasmopsis synoviae
From the text: (§5) The minimal inhibitory concentrations (MIC's) of a number of typical compounds of the present invention (R^2 =H in group tested) against various mycoplasma species, as determined by in vitro broth-dilution studies, are summarized in Table V.

Mycoplasma hyopneumoniae = experiment: in vitro broth-dilution studies, mycoplasma; assay type: cell-based; settings: Mesomycoplasma hyopneumoniae
From the text: as §5

Mycoplasma gallisepticum = experiment: in vitro broth-dilution studies, mycoplasma; assay type: cell-based; settings: Mycoplasmoides gallisepticum
From the text: as §5

Mycoplasma hyorhinis = experiment: in vitro broth-dilution studies, mycoplasma; assay type: cell-based
From the text: as §5

[15] = system: Bacteroides fragilis 1936B; experiment: standard agar-dilution test, anaerobic bacteria; assay type: cell-based; settings: Bacteroides fragilis 1936B; 24-hour incubation; read-out: MIC
[16] = system: Peptostreptococcus anaerobius; experiment: standard agar-dilution test, anaerobic bacteria; assay type: cell-based; settings: 24-hour incubation
Pseudomonas sp. (fish) = experiment: in vitro activity against Pseudomonas sp. (fish); assay type: cell-based
From the text: P. multocida, for example, is a causative agent of respiratory infection in cattle, poultry and swine. P. hemolytica is a major cause of respiratory disease in cattle. The activity of representative compounds of this invention (R^2 =H in group tested) against P. multocida and the Pseudomonas sp. is summarized in Table VI.

[17] = system: Peptococcus asaccharolyticus; experiment: standard agar-dilution test, anaerobic bacteria; assay type: cell-based; settings: Peptoniphilus asaccharolyticus, 24-hour incubation
Fusobacterium symbiosum = experiment: standard agar-dilution test, anaerobic bacteria; assay type: cell-based; settings: Fusobacterium symbiosum; 24-hour incubation; read-out: MIC
[18] = system: Streptococcus pneumoniae B1343; experiment: in vivo antimicrobial activity, experimental infection in mice, Streptococcus pneumoniae B1343; settings: sc, two doses, infecting challenge 30 × LD50 (ip), read-out: ED50 × 2
Protocol: as §1

swine dysentery = settings: cited from earlier work
[19] = Staphylococcus aureus, 3055, po, oral, infecting challenge 500 × LD50 (ip)
[20] = Staphylococcus aureus, 3055, po, oral, infecting challenge 3400 × LD50 (ip)

SMILES: CC[C@]1(C)C[C@@H](OC(=O)CS[C@@H]2OC[C@@H](O)[C@H](O)[C@H]2O)[C@]2(C)[C@H](C)CC[C@]3(CCC(=O)[C@H]32)[C@@H](C)[C@@H]1O
- MIC (Spiroplasma citri; Spiroplasma citri, in vitro, read-out: inhibits the growth of S. citri at levels as low as): ≥ 0.01 µg/mL
- MIC (Pasteurella hemolytica): 10.4 µg/mL (≈ 19.7 µM)
- inhibition of growth (Treponema hyodysenteriae; 0.5 mcg/ml agar concentration): inhibited growth
- inhibition of growth (Treponema hyodysenteriae; 5.0 mcg/ml agar concentration): inhibited growth
- inhibition of growth (Treponema hyodysenteriae; 50 mcg/ml agar concentration): inhibited growth
- LD50 ([1]; intraperitoneal injection, mice): > 1500 mg/kg

SMILES: C=C[C@]1(C)C[C@@H](OC(=O)CS[C@@H]2OC[C@@H](O)[C@H](O)[C@H]2O)[C@]2(C)[C@H](C)CC[C@]3(CCC(=O)[C@H]32)[C@@H](C)[C@@H]1O [Compound 2]
- MIC [2]: > 128 µg/mL
- MIC (Peptococcus prevoti): ≤ 0.5 µg/mL
- MIC [3]: 1 µg/mL (≈ 1.9 µM)
- Activity (color reaction) (Spiroplasma citri; 0.01 ppm): RO,RO
- Activity (color reaction) (Spiroplasma citri; 0.05 ppm): --,R
- Activity (color reaction) (Spiroplasma citri; 0.1 ppm): R,R
- Activity (color reaction) (Spiroplasma citri; 1.0 ppm): R,R
- MIC [4]: ≤ 0.5 µg/mL
- ED50 [5]: 15.3 mg/kg
- MIC (Pasteurella hemolytica): 12.5 µg/mL (≈ 23.7 µM)
- MIC (Bacteroides vulgatis): 1 µg/mL (≈ 1.9 µM)
- ED50 [6, 19]: 32.4 mg/kg
- ED50 [6, 20]: 44 mg/kg
- ED50 ([6]; Staphylococcus aureus, 3055, sc, sc, infecting challenge 82 × LD50 (ip)): 1.85 mg/kg
- MIC [7]: 1 µg/mL (≈ 1.9 µM)
- MIC (Clostridium septicum): 2 µg/mL (≈ 3.8 µM)
- MIC [8]: 1 µg/mL (≈ 1.9 µM)
- Units of Activity [9]: 995 to 1003 µg/mg
- MIC (Clostridium perfringens): 2 µg/mL (≈ 3.8 µM)
- MIC [10]: ≤ 0.5 µg/mL
- inhibition of growth (Treponema hyodysenteriae; 0.5 mcg/ml agar concentration): inhibited growth
- inhibition of growth (Treponema hyodysenteriae; 5.0 mcg/ml agar concentration): inhibited growth
- inhibition of growth (Treponema hyodysenteriae; 50 mcg/ml agar concentration): inhibited growth
- MIC (Bacteroides corrodens): 1 µg/mL (≈ 1.9 µM)
- MIC [11]: 6.25 µg/mL (≈ 11.9 µM)
- MIC [12]: 3.12 µg/mL (≈ 5.92 µM)
- ED50 [13]: 65 mg/kg
- MIC (Actinomyces israelii): ≤ 0.5 µg/mL
- MIC (Bacteroides fragilis 111): 1 µg/mL (≈ 1.9 µM)
- MIC (Eubacterium aerofaciens): 1 µg/mL (≈ 1.9 µM)
- ED50 ([14]; infecting challenge 370 × LD50 (ip)): 11.4 mg/kg
- MIC (Mycoplasma synoviae): 0.78 µg/mL (≈ 1.48 µM)
- MIC (Mycoplasma hyopneumoniae): ≤ 0.15 µg/mL
- MIC (Mycoplasma gallisepticum): 0.78 µg/mL (≈ 1.48 µM)
- MIC (Mycoplasma hyorhinis): 0.39 µg/mL (≈ 0.74 µM)
- MIC [15]: 1 µg/mL (≈ 1.9 µM)
- LD50 [1]: > 1500 mg/kg
- MIC [16]: ≤ 0.5 µg/mL
- MIC (Pseudomonas sp. (fish)): 6.25 µg/mL (≈ 11.9 µM)
- MIC [17]: ≤ 0.5 µg/mL
- MIC (Fusobacterium symbiosum): 2 µg/mL (≈ 3.8 µM)

SMILES: CC[C@]1(C)C[C@@H](OC(=O)CS[C@@H]2OC[C@@H](O)[C@H](O)[C@H]2O)[C@]2(C)[C@H](C)CC[C@]3(CCC(=O)[C@H]32)[C@@H](C)[C@@H]1O [Compound 3]
- MIC [2]: 0.25 µg/mL (≈ 0.473 µM)
- MIC (Peptococcus prevoti): ≤ 0.125 µg/mL
- MIC [3]: 1 µg/mL (≈ 1.89 µM)
- Activity (color reaction) (Spiroplasma citri; 0.01 ppm): R
- Activity (color reaction) (Spiroplasma citri; 0.05 ppm): R
- Activity (color reaction) (Spiroplasma citri; 0.1 ppm): R
- Activity (color reaction) (Spiroplasma citri; 1.0 ppm): R
- MIC [4]: 0.5 µg/mL (≈ 0.946 µM)
- ED50 [5]: 13.2 mg/kg
- MIC (Bacteroides vulgatis): 1 µg/mL (≈ 1.89 µM)
- ED50 [6, 19]: 21 mg/kg
- ED50 [6, 20]: 29 mg/kg
- ED50 ([6]; Staphylococcus aureus, 3055, sc, sc, infecting challenge 400 × LD50 (ip)): 1.6 mg/kg
- MIC [7]: 0.5 µg/mL (≈ 0.946 µM)
- MIC (Clostridium septicum): 1 µg/mL (≈ 1.89 µM)
- MIC [8]: 0.5 µg/mL (≈ 0.946 µM)
- Units of Activity [9]: 1150 to 1243 µg/mg
- MIC (Clostridium perfringens): 2 µg/mL (≈ 3.78 µM)
- MIC [10]: 1 µg/mL (≈ 1.89 µM)
- MIC (Bacteroides corrodens): 1 µg/mL (≈ 1.89 µM)
- MIC [11]: 6.25 µg/mL (≈ 11.8 µM)
- MIC [12]: 6.25 µg/mL (≈ 11.8 µM)
- ED50 [13]: 58.5 mg/kg
- MIC (Actinomyces israelii): 0.5 µg/mL (≈ 0.946 µM)
- MIC (Bacteroides fragilis 111): 2 µg/mL (≈ 3.78 µM)
- MIC (Eubacterium aerofaciens): 0.5 µg/mL (≈ 0.946 µM)
- ED50 ([14]; infecting challenge 500 × LD50 (ip)): 7 mg/kg
- MIC (Mycoplasma synoviae): 0.39 µg/mL (≈ 0.738 µM)
- MIC (Mycoplasma hyopneumoniae): ≤ 0.15 µg/mL
- MIC (Mycoplasma gallisepticum): 0.39 µg/mL (≈ 0.738 µM)
- MIC (Mycoplasma hyorhinis): 0.39 µg/mL (≈ 0.738 µM)
- MIC [15]: 1 µg/mL (≈ 1.89 µM)
- ED50 [18]: 16.3 mg/kg
- MIC [16]: ≤ 0.125 µg/mL
- MIC (Pseudomonas sp. (fish)): 12.5 µg/mL (≈ 23.6 µM)
- MIC [17]: 0.5 µg/mL (≈ 0.946 µM)
- MIC (Fusobacterium symbiosum): 1 µg/mL (≈ 1.89 µM)

SMILES: C=C[C@]1(C)C[C@@H](OC(=O)CO)[C@]2(C)[C@H](C)CC[C@]3(CCC(=O)[C@H]32)[C@@H](C)[C@@H]1O [pleuromutilin]
- effectiveness in the treatment of swine dysentery (in words) (swine dysentery): effective in the treatment of swine dysentery
